Measured values as given in ChEMBL document CHEMBL3860091, “Synthesis and activity of newly designed aroxyalkyl or aroxyethoxyethyl derivatives of piperazine on the cardiovascular and the central nervous systems” (Bioorg Med Chem Lett, 2016).

Tested on: not listed separately
Test: Antidepressant-like activity in albino Swiss (CD-1) mouse assessed as immobility time at 10 mg/kg, ip administered 30 mins prior to test measured for last 4 mins of 6 mins observation by forced swim test (reference value: 178.3 +/- 12.3 sec)
Format: functional, organism-based
Cc1cccc(OCCCN2CCN(c3ccccc3)CC2)c1C.Cl.Cl gave a TIME of 0.048 h. Work on Cc1cccc(OCCN2CCN(c3ccccc3)CC2)c1C.Cl.Cl yielded a TIME of 0.0446 h. In the case of Cc1cccc(Cl)c1OCCCCN1CCN(c2ccccc2)CC1.Cl.Cl, the TIME is reported as 0.0193 h. For COc1ccccc1N1CCN(CCCCOc2c(C)cccc2C)CC1.Cl, the TIME was 0.0398 h. Molecule COc1ccccc1N1CCN(CCOCCOc2cccc(C)c2C)CC1.Cl.Cl has a TIME of 0.0331 h.

Tested on: Rattus norvegicus
Test: Hypotensive activity in normotensive anesthetized Wistar rat assessed as systolic blood pressure at 1 mg/kg, iv measured 30 mins post dose (reference value: 107.4 to 148.3 mmHg)
Format: functional
With Cc1cccc(OCCCN2CCN(c3ccccc3)CC2)c1C.Cl.Cl the Activity was 135.8 mmHg. With Cc1cccc(OCCN2CCN(c3ccccc3)CC2)c1C.Cl.Cl the Activity was 93 mmHg. Work on Cc1cccc(Cl)c1OCCCCN1CCN(c2ccccc2)CC1.Cl.Cl yielded an Activity of 123.5 mmHg. Work on COc1ccccc1N1CCN(CCCCOc2c(C)cccc2C)CC1.Cl yielded an Activity of 125.5 mmHg. In the case of COc1ccccc1N1CCN(CCOCCOc2cccc(C)c2C)CC1.Cl.Cl, the Activity is reported as 131 mmHg.

Molecular target: T1, Adrenergic receptor alpha-2 (Rattus norvegicus, UniProt P22086+P19328+P22909)
T1 sequence (P22086 whole entry): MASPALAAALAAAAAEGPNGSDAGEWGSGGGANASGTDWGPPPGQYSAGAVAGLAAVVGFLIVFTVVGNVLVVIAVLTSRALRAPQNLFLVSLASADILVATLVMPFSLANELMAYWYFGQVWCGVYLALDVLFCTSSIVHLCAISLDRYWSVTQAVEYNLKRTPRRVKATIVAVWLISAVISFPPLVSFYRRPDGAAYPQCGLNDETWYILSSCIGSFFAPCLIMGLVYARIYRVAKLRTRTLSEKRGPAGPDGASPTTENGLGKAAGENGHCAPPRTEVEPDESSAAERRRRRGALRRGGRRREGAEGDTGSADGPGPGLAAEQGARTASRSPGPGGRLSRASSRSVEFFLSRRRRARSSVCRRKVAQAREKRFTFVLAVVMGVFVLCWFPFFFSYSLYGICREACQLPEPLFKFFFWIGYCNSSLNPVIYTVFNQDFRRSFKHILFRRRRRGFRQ
T1 sequence (P19328 whole entry): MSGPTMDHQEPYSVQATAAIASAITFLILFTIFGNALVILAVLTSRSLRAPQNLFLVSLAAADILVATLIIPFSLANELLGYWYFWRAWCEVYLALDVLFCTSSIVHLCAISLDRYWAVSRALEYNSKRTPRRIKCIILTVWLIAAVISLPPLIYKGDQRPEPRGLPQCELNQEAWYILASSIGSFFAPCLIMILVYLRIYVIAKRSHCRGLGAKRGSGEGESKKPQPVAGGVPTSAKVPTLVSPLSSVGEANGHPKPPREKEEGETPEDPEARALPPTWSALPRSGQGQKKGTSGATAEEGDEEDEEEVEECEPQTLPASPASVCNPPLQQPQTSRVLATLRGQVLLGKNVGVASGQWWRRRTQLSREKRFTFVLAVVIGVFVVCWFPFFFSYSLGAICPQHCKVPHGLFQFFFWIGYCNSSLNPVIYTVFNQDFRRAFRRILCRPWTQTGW
T1 sequence (P22909 whole entry): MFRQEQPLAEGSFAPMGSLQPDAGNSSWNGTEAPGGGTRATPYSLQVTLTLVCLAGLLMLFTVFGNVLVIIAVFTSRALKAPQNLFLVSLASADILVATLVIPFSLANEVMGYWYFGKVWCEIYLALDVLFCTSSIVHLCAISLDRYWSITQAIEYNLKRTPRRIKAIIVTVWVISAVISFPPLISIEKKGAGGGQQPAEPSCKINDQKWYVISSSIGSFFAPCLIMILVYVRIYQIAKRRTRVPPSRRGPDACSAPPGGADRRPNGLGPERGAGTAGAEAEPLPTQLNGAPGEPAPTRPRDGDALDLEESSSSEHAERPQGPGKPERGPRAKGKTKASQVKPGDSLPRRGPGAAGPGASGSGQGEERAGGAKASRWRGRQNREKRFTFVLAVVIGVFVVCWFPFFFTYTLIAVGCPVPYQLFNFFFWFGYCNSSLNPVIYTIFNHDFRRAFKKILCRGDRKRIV
Test: Displacement of [3H]clonidine from alpha2 adrenergic receptor in rat brain cerebral cortex after 25 mins by microbeta scintillation counting method
Format: tissue-based
In the case of Cc1cccc(OCCCN2CCN(c3ccccc3)CC2)c1C.Cl.Cl, the Ki is reported as 810 nM. In the case of Cc1cccc(OCCN2CCN(c3ccccc3)CC2)c1C.Cl.Cl, the Ki is reported as 289 nM. Molecule Cc1cccc(Cl)c1OCCCCN1CCN(c2ccccc2)CC1.Cl.Cl has a Ki of 505.7 nM. Work on COc1ccccc1N1CCN(CCCCOc2c(C)cccc2C)CC1.Cl yielded a Ki of 370.5 nM. In the case of COc1ccccc1N1CCN(CCOCCOc2cccc(C)c2C)CC1.Cl.Cl, the Ki is reported as 893 nM.

Molecular target: Adrenergic receptor alpha-1 (Rattus norvegicus) (UniProt P15823+P23944+P43140)
Sequence (P15823 whole entry, looked up): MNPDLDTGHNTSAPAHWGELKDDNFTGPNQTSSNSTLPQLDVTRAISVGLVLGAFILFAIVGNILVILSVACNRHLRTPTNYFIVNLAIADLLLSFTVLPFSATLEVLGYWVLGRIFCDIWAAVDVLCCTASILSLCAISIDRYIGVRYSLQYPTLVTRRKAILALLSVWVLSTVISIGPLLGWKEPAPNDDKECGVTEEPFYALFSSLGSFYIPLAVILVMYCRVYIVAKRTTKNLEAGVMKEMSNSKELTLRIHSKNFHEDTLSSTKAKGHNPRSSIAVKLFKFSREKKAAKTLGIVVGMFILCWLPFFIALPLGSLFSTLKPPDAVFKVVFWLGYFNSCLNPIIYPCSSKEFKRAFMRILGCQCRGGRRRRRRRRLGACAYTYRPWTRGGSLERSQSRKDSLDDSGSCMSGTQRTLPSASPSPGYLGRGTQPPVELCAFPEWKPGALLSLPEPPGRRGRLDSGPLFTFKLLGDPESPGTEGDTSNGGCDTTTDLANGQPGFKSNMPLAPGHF
Sequence (P23944 whole entry, looked up): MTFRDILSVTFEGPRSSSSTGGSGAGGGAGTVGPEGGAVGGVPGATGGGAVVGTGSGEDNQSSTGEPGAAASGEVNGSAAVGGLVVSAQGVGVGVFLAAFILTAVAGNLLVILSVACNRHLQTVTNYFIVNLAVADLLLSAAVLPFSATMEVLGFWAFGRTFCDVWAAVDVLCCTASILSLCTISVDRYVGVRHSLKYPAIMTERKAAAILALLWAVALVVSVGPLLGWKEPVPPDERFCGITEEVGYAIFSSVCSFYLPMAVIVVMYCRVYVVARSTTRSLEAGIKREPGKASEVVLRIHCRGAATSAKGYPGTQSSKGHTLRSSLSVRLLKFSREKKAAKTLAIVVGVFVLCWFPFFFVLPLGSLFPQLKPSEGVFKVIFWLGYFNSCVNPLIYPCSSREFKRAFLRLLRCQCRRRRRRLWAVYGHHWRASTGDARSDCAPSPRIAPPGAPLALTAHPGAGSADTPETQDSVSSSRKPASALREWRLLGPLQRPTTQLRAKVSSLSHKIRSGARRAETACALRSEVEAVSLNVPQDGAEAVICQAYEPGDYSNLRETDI
Sequence (P43140 whole entry, looked up): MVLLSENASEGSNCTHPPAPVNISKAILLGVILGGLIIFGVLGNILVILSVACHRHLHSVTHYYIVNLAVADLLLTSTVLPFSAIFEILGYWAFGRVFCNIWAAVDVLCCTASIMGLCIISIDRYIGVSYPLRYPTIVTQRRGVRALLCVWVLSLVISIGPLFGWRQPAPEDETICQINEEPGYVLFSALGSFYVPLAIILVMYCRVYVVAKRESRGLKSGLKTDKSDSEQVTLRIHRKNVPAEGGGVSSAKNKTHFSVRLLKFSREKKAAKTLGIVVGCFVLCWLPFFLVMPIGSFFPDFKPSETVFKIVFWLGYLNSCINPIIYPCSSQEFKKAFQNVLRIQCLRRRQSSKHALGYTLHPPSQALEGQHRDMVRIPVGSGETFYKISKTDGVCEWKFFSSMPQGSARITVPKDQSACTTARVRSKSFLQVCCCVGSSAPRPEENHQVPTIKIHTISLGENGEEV
Test: Antagonist activity at alpha1 adrenergic receptor in Wistar rat aorta assessed as inhibition of naradrenaline-induced aortic contraction preincubated for 30 mins followed by naradrenaline stimulation for 3 hrs at 60 mins interval in presence of alpha2 adrenergic receptor blocker yohimbine and beta adrenergic receptor blocker propranolol
With Cc1cccc(OCCCN2CCN(c3ccccc3)CC2)c1C.Cl.Cl the inhibition was “Dose-dependent effect” and the pKb was 7.97. For Cc1cccc(OCCN2CCN(c3ccccc3)CC2)c1C.Cl.Cl, the inhibition was “Dose-dependent effect” and the pKb was 8.75. With Cc1cccc(Cl)c1OCCCCN1CCN(c2ccccc2)CC1.Cl.Cl the inhibition was “Dose-dependent effect” and the pKb was 8.37. For COc1ccccc1N1CCN(CCCCOc2c(C)cccc2C)CC1.Cl, the inhibition was “Dose-dependent effect” and the pKb was 8.54. For COc1ccccc1N1CCN(CCOCCOc2cccc(C)c2C)CC1.Cl.Cl, the inhibition was “Dose-dependent effect” and the pKb was 8.76.

Tested on: Rattus norvegicus
Test: Hypotensive activity in normotensive anesthetized Wistar rat assessed as systolic blood pressure at 1 mg/kg, iv measured 10 mins post dose (reference value: 107.4 to 148.3 mmHg)
Format: functional
With Cc1cccc(OCCCN2CCN(c3ccccc3)CC2)c1C.Cl.Cl the Activity was 138 mmHg. Work on Cc1cccc(OCCN2CCN(c3ccccc3)CC2)c1C.Cl.Cl yielded an Activity of 97.2 mmHg. Molecule Cc1cccc(Cl)c1OCCCCN1CCN(c2ccccc2)CC1.Cl.Cl has an Activity of 127.7 mmHg. COc1ccccc1N1CCN(CCCCOc2c(C)cccc2C)CC1.Cl gave an Activity of 126.2 mmHg. COc1ccccc1N1CCN(CCOCCOc2cccc(C)c2C)CC1.Cl.Cl gave an Activity of 131 mmHg.

Tested on: Rattus norvegicus
Test: Hypotensive activity in normotensive anesthetized Wistar rat assessed as diastolic blood pressure at 1 mg/kg, iv measured 60 mins post dose (reference value: 81.6 to 115.2 mmHg)
Format: functional
Work on Cc1cccc(OCCCN2CCN(c3ccccc3)CC2)c1C.Cl.Cl yielded an Activity of 109.7 mmHg. For Cc1cccc(OCCN2CCN(c3ccccc3)CC2)c1C.Cl.Cl, the Activity was 67.6 mmHg. Work on Cc1cccc(Cl)c1OCCCCN1CCN(c2ccccc2)CC1.Cl.Cl yielded an Activity of 95.2 mmHg. COc1ccccc1N1CCN(CCCCOc2c(C)cccc2C)CC1.Cl showed an Activity of 103.8 mmHg. Work on COc1ccccc1N1CCN(CCOCCOc2cccc(C)c2C)CC1.Cl.Cl yielded an Activity of 104 mmHg.

Tested on: Rattus norvegicus
Test: Hypotensive activity in normotensive anesthetized Wistar rat assessed as diastolic blood pressure at 1 mg/kg, iv measured 5 mins post dose (reference value: 81.6 to 115.2 mmHg)
Format: functional
Cc1cccc(OCCCN2CCN(c3ccccc3)CC2)c1C.Cl.Cl gave an Activity of 111.8 mmHg. In the case of Cc1cccc(OCCN2CCN(c3ccccc3)CC2)c1C.Cl.Cl, the Activity is reported as 75.2 mmHg. Work on Cc1cccc(Cl)c1OCCCCN1CCN(c2ccccc2)CC1.Cl.Cl yielded an Activity of 103.7 mmHg. For COc1ccccc1N1CCN(CCCCOc2c(C)cccc2C)CC1.Cl, the Activity was 109.8 mmHg. Molecule COc1ccccc1N1CCN(CCOCCOc2cccc(C)c2C)CC1.Cl.Cl has an Activity of 105 mmHg.

Molecular target: T2, 5-hydroxytryptamine receptor 1A (Homo sapiens, UniProt P08908)
T2 sequence (P08908 whole entry): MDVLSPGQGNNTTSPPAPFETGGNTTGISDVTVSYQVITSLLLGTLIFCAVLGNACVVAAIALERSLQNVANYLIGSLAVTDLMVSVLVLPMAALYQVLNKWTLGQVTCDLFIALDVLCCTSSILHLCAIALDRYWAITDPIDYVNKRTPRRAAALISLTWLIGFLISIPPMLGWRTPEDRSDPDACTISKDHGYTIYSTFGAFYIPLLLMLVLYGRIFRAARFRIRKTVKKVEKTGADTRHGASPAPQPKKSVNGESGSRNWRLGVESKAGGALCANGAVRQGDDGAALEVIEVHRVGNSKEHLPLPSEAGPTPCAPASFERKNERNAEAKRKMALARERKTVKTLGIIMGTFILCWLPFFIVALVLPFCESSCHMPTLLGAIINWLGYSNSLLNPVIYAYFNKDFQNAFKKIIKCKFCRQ
Test: Displacement of [3H]8-OH-DPAT from human recombinant 5-HT1A receptor expressed in membranes after 60 mins by microbeta scintillation counting method
Molecule Cc1cccc(OCCCN2CCN(c3ccccc3)CC2)c1C.Cl.Cl has a Ki of 5.4 nM. Cc1cccc(OCCN2CCN(c3ccccc3)CC2)c1C.Cl.Cl showed a Ki of 12.3 nM. Cc1cccc(Cl)c1OCCCCN1CCN(c2ccccc2)CC1.Cl.Cl showed a Ki of 4 nM. Work on COc1ccccc1N1CCN(CCCCOc2c(C)cccc2C)CC1.Cl yielded a Ki of 2 nM. Work on COc1ccccc1N1CCN(CCOCCOc2cccc(C)c2C)CC1.Cl.Cl yielded a Ki of 5 nM.

Tested on: Rattus norvegicus
Test: Hypotensive activity in normotensive anesthetized Wistar rat assessed as diastolic blood pressure at 1 mg/kg, iv measured 30 mins post dose (reference value: 81.6 to 115.2 mmHg)
Format: functional
With Cc1cccc(OCCCN2CCN(c3ccccc3)CC2)c1C.Cl.Cl the Activity was 109 mmHg. Cc1cccc(OCCN2CCN(c3ccccc3)CC2)c1C.Cl.Cl showed an Activity of 67.6 mmHg. In the case of Cc1cccc(Cl)c1OCCCCN1CCN(c2ccccc2)CC1.Cl.Cl, the Activity is reported as 97.7 mmHg. In the case of COc1ccccc1N1CCN(CCCCOc2c(C)cccc2C)CC1.Cl, the Activity is reported as 102 mmHg. For COc1ccccc1N1CCN(CCOCCOc2cccc(C)c2C)CC1.Cl.Cl, the Activity was 105.6 mmHg.

Tested on: Rattus norvegicus
Test: Hypotensive activity in normotensive anesthetized Wistar rat assessed as systolic blood pressure at 1 mg/kg, iv measured 5 mins post dose (reference value: 107.4 to 148.3 mmHg)
Format: functional
Cc1cccc(OCCCN2CCN(c3ccccc3)CC2)c1C.Cl.Cl showed an Activity of 143.8 mmHg. For Cc1cccc(OCCN2CCN(c3ccccc3)CC2)c1C.Cl.Cl, the Activity was 99.8 mmHg. In the case of Cc1cccc(Cl)c1OCCCCN1CCN(c2ccccc2)CC1.Cl.Cl, the Activity is reported as 129.3 mmHg. COc1ccccc1N1CCN(CCCCOc2c(C)cccc2C)CC1.Cl gave an Activity of 129.5 mmHg. For COc1ccccc1N1CCN(CCOCCOc2cccc(C)c2C)CC1.Cl.Cl, the Activity was 129.8 mmHg.

Species: Rattus norvegicus
Test: Selectivity ratio of Ki for rat brain cerebral cortex alpha2 adrenergic receptor to Ki for rat brain cerebral cortex alpha1 adrenergic receptor
In the case of Cc1cccc(OCCCN2CCN(c3ccccc3)CC2)c1C.Cl.Cl, the Ratio Ki is reported as 24.6. With Cc1cccc(OCCN2CCN(c3ccccc3)CC2)c1C.Cl.Cl the Ratio Ki was 1.82. Cc1cccc(Cl)c1OCCCCN1CCN(c2ccccc2)CC1.Cl.Cl showed a Ratio Ki of 8.48. Molecule COc1ccccc1N1CCN(CCCCOc2c(C)cccc2C)CC1.Cl has a Ratio Ki of 15.8. Molecule COc1ccccc1N1CCN(CCOCCOc2cccc(C)c2C)CC1.Cl.Cl has a Ratio Ki of 31.3.
